Key:
Type in all cases: binding
[1] = target: T1, Recombinant human integrin αVβ6 (Homo sapiens, UniProt P06756+P18564); experiment: Solid Phase Receptor Assay (SPRA) for αVβ6 function; conditions: plate-bound human LAP
T1 construct: purchased R&D Systems 3817-AV
Method: E. Solid Phase Receptor Assay (SPRA) for αVβ6 Function
(§1) Wells were washed 3 times with 150 μL TBS+, and then 150 μL of blocking buffer (TBS+ with 1% bovine serum albumin, Sigma A7906) was added. The plate was incubated for 1 hr at 37° C., and then washed 3× with TBS+ buffer. […] Compounds were diluted to 20 μM and then 1 μL was added to each well of the plate according to a standard template with each sample repeated in triplicate. After incubation for two hours at room temperature, the plate was washed 3× with 150 μL of TBS+ buffer. To each well, 50 μL of biotinylated anti-αV antibody (R&D Systems, BAF1219) at 0.5 μg/mL in TBS+/0.1% BSA were added and the plate was covered and incubated for 1 hr at room temperature. After washing the plate 3× with 150 μL of TBS+ buffer, 50 μL of streptavidin-conjugated horseradish peroxidase (R&D Systems, DY998) diluted in TBS+ blocking buffer were added to the wells and the plate incubated for 20 min at room temperature. The plate was washed 3× with TBS+ buffer followed by 50 μL of TMB substrate (Sigma T4444) added to each well in the dark and the plate incubated for 10 min at room temperature. 25 μL of 1.0 M phosphoric acid was added as a stop solution and the plates were read at 450 nm using a Spectramax plate reader.

[2] = target: T2, Recombinant human integrin αVβ5 (Homo sapiens, UniProt P06756+P18084); experiment: Solid Phase Receptor Assay (SPRA) for αVβ5 function; conditions: plate-bound human vitronectin
T2 construct: purchased R&D Systems 2528-AV
Method: D. Solid Phase Receptor Assay (SPRA) for αVβ5 Function
as §1, with “150 μL TBS+ and then” for “150 μL TBS+, and then”, “at 37° C. and then” for “at 37° C., and then”, “well, 50 μl of biotinylated” for “well, 50 μL of biotinylated”, “TBS+/0.1% BSA at 0.5 μg/mL were added” for “TBS+/0.1% BSA were added”, “the plate covered and” for “the plate was covered and”, “incubated for 5 min at” for “incubated for 10 min at”

[3] = target: T3, Recombinant human integrin αvβ1 (Homo sapiens, UniProt P05556+P06756); experiment: Solid Phase Receptor Assay (SPRA) for αVβ1 function; conditions: plate-bound human fibronectin
T3 construct: purchased R&D Systems 6579-AV
Method: B. Solid Phase Receptor Assay (SPRA) for αVβ1 Function
(§2) Wells were washed 3 times with 150 μL TBS+ and then 150 μL of blocking buffer (TBS+ with 1% bovine serum albumin, Sigma A7906) was added. The plate was incubated for 1 hr at 37° C. and then washed 3× with TBS+ buffer. […] Compounds were diluted to 20 μM and 1 μL was added to each well of the plate according to a standard template with each sample repeated in triplicate. After incubation for two hours at room temperature, the plate was washed 3× with 150 μL of TBS+ buffer. To each well, 50 μL of biotinylated anti-αV antibody (R&D Systems, BAF1219) at 1 μg/mL in TBS+/0.1% BSA were added and the plate covered and incubated for 1 hr at room temperature. After washing the plate 3× with 150 μL of TBS+ buffer, 50 μL of streptavidin-conjugated horseradish peroxidase (R&D Systems, DY998) diluted in TBS+ blocking buffer were added to the wells and the plate incubated for 20 min at room temperature. The plate was washed 3× with TBS+ buffer followed by 50 μL of TMB substrate (Sigma, T4444) added to each well in the dark and the plate incubated for 25 min at room temperature. 25 μL of 1.0 M phosphoric acid was added as a stop solution and the plates were read at 450 nm using a Spectramax plate reader.

[4] = target: T4, Recombinant human integrin α5β1 (Homo sapiens, UniProt P05556+P08648); experiment: Solid Phase Receptor Assay (SPRA) for α5β1 function; conditions: plate-bound human fibronectin
T4 construct: purchased R&D Systems 3230-A5
Method: A. Solid Phase Receptor Assay (SPRA) for α5β1 Function
as §2, with “μM and then 1 μL” for “μM and 1 μL”, “of biotinylated anti-α5 antibody (R&D” for “of biotinylated anti-αV antibody (R&D”, “(R&D Systems, BAF1864) at 0.5” for “(R&D Systems, BAF1219) at 1”, “BAF1864) at 0.5 μg/mL in” for “BAF1219) at 1 μg/mL in”, “μL of room temperature TMB substrate” for “μL of TMB substrate”

T2 sequence (P06756 31-992 limits assumed): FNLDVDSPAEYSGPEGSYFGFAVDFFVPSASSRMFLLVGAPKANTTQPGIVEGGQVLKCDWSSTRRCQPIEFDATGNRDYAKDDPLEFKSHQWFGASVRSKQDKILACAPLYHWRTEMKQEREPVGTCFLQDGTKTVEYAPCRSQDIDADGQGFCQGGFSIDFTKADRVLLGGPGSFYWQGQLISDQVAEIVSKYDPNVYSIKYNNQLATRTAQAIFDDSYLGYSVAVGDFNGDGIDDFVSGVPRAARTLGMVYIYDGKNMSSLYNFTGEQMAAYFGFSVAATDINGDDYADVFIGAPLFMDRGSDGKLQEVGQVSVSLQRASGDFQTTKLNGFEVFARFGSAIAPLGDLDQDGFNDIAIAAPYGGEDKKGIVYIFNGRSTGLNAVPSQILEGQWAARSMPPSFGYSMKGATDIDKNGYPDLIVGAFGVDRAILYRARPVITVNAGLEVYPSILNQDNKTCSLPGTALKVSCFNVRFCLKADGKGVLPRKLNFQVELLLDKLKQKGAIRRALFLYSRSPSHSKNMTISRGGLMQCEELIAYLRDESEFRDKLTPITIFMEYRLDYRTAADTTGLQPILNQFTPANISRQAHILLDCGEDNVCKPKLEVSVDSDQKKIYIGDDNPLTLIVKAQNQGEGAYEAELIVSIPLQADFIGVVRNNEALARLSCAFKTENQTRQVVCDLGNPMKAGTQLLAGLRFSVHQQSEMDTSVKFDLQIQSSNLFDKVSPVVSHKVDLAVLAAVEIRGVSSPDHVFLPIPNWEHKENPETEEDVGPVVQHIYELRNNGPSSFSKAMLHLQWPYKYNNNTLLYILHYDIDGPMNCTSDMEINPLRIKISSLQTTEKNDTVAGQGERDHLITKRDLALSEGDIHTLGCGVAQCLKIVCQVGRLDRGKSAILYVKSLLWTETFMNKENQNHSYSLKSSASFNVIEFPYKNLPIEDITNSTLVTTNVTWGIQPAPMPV
T2 sequence (P18084 24-719 limits assumed): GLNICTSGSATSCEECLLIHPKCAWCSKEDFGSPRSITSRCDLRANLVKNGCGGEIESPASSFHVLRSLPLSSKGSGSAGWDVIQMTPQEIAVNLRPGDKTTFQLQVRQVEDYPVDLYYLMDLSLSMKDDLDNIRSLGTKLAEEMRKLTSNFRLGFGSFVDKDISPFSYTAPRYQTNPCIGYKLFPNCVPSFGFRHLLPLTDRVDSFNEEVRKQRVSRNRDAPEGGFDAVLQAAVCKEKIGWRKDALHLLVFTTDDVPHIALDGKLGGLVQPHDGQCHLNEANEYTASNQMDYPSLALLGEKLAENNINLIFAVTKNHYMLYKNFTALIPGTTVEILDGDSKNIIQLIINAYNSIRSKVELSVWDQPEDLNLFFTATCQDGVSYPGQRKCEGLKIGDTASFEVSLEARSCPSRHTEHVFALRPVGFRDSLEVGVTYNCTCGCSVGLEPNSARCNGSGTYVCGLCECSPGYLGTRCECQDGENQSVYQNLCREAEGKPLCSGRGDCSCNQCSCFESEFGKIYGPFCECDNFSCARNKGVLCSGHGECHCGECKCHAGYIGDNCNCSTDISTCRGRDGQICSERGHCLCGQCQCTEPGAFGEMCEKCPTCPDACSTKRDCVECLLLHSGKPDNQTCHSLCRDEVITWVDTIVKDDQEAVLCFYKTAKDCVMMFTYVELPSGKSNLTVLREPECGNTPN
T3 sequence (P06756 31-992 limits assumed): as the sequence (P06756 31-992 limits assumed) above
T3 sequence (P05556 21-728 limits assumed): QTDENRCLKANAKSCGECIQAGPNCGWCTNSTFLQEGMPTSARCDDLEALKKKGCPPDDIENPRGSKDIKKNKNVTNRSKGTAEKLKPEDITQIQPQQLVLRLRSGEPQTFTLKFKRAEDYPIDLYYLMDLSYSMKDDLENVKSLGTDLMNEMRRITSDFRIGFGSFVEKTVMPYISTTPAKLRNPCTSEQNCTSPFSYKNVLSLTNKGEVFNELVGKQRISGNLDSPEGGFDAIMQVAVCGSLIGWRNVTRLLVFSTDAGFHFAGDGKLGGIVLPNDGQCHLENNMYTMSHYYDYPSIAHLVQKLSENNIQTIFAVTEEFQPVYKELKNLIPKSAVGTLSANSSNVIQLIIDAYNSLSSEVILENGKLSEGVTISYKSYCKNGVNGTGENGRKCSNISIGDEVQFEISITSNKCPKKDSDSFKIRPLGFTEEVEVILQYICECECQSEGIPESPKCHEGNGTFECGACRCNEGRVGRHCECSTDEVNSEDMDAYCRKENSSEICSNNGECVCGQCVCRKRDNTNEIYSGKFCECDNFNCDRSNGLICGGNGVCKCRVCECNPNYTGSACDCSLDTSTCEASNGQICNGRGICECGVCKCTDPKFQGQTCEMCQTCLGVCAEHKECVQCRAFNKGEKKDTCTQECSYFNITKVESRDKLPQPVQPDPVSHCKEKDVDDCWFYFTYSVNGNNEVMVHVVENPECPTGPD
T1 sequence (P06756 31-992 limits assumed): as the sequence (P06756 31-992 limits assumed) above
T1 sequence (P18564 22-707 limits assumed): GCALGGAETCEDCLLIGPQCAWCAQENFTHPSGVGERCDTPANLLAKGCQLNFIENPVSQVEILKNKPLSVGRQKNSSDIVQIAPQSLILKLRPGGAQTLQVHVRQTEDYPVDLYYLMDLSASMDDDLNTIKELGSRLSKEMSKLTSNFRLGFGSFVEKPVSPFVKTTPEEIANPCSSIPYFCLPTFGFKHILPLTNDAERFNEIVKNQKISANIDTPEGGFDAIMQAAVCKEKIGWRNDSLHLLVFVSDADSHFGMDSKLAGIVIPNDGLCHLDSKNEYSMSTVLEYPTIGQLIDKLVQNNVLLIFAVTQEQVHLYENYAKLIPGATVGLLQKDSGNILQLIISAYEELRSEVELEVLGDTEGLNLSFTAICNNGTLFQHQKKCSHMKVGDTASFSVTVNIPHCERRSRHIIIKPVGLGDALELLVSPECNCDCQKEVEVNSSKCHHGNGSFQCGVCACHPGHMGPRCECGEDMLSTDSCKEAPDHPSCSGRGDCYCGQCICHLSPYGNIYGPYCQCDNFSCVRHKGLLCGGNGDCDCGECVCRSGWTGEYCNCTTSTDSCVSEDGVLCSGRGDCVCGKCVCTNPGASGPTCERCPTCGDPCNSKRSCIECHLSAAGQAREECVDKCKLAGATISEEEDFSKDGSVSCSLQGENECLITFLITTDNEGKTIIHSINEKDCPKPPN
T4 sequence (P08648 42-995 limits assumed): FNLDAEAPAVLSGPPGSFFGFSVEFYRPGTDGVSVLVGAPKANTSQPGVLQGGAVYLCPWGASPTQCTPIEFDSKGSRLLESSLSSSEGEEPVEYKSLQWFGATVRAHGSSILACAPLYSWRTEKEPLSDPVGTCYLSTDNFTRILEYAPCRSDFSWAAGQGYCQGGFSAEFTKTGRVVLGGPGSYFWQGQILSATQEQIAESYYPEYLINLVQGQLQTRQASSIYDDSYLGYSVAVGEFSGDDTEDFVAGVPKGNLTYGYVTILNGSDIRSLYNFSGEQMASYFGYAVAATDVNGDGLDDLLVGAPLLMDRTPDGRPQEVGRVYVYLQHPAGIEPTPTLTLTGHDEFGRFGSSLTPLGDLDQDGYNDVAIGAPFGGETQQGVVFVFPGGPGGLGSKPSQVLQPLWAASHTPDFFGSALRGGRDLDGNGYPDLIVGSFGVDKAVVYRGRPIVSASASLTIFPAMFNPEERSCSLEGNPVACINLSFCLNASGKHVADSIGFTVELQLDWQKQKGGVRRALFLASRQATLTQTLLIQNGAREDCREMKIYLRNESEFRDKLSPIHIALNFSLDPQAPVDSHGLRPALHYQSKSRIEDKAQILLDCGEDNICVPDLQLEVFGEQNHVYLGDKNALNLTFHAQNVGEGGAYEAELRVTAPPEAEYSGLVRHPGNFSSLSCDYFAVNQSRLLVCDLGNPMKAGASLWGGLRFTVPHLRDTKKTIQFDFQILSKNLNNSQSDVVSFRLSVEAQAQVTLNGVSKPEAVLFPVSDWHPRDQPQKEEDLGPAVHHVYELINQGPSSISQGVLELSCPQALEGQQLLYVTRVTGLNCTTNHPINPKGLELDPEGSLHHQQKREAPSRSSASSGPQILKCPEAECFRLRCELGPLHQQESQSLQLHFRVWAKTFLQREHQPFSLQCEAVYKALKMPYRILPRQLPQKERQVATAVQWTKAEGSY
T4 sequence (P05556 21-728 limits assumed): as the sequence (P05556 21-728 limits assumed) above

Compound | IC50 [1] [nM] | IC50 [2] [nM] | IC50 [3] [nM] | IC50 [4] [nM]
O=C(O)CC(Cc1cc(OCCc2ccc3c(n2)NCCC3)[nH]n1)c1cccc(F)c1 (stereo not drawn) [CC2, reference compound] | 54 | 0.2 | 19 | 770
COCC1(c2cc(C(CC(=O)O)Cc3cc(OCCc4ccc5c(n4)NCCC5)n(C)n3)cc(C(C)(C)C)c2)CCOCC1 (stereo not drawn) [Example 1, 3-[3-tert-butyl-5-[4-(methoxymethyl)tetrahydropyran-4-yl]phenyl]-4-[1-methyl-5-[2-(5,6,7,8-tetrahydro-1,8-naphthyridin-2-yl)ethoxy]pyrazol-3-yl]butanoic acid] | 200 | 44 | 6 | 2
CC(C)c1cc(C#N)cc(C(CC(=O)O)Cc2cc(OCCc3ccc4c(n3)NCCC4)n(C)n2)c1 (stereo not drawn) [Example 2, 3-(3-cyano-5-isopropylphenyl)-4-(1-methyl-5-(2-(5,6,7,8-tetrahydro-1,8-naphthyridin-2-yl)ethoxy)-1H-pyrazol-3-yl)butanoic acid trifluoroacetic acid] | 20 | 0.3 | 9 | 7
Cn1nc(CC(CC(=O)O)c2cc(Br)cc(S(F)(F)(F)(F)F)c2)cc1OCCc1ccc2c(n1)NCCC2 (stereo not drawn) [Example 3, 3-[3-bromo-5-(pentafluoro-sulfanyl)phenyl]-4-[1-methyl-5-[2-(5,6,7,8-tetrahydro-1,8-naphthyridin-2-yl)ethoxy]pyrazol-3-yl]butanoic acid] | 54 | 2 | 12 | 31
CC(C)c1cc(C(C)C)cc(C(CC(=O)O)Cc2cc(OCCc3ccc4c(n3)NCCC4)n(C)n2)c1 (stereo not drawn) [Example 4, 3-(3,5-diisopropylphenyl)-4-[1-methyl-5-[2-(5,6,7,8-tetrahydro-1,8-naphthyridin-2-yl)ethoxy]pyrazol-3-yl]butanoic acid] | 84 | 6 | 7 | 4
Cn1nc(CC(CC(=O)O)c2cc(C(C)(C)C)cc(C(C)(C)C(F)(F)F)c2)cc1OCCc1ccc2c(n1)NCCC2 (stereo not drawn) [Example 5, 3-(3-(tert-butyl)-5-(1,1,1-trifluoro-2-methylpropan-2-yl)phenyl)-4-(1-methyl-5-(2-(5,6,7,8-tetrahydro-1,8-naphthyridin-2-yl)ethoxy)-1H-pyrazol-3-yl) butanoic acid] | 460 | 160 | 4 | 2
Cn1nc(CC(CC(=O)O)c2cc(C(C)(C)C)cc(C3(C(F)F)CC3)c2)cc1OCCc1ccc2c(n1)NCCC2 (stereo not drawn) [Example 6, 3-(3-(tert-butyl)-5-(1-(difluoromethyl)cyclopropyl)phenyl)-4-(1-methyl-5-(2-(5,6,7,8-tetrahydro-1,8-naphthyridin-2-yl)ethoxy)-1H-pyrazol-3-yl)butanoic acid] | 140 | 54 | 5 | 6
Cn1nc(CC(CC(=O)O)c2cc(C(C)(C)C)cc(C(C)(C)CO)c2)cc1OCCc1ccc2c(n1)NCCC2 (stereo not drawn) [Example 7, 3-[3-tert-butyl-5-(2-hydroxy-1,1-dimethyl-ethyl)phenyl]-4-[1-methyl-5-[2-(5,6,7,8-tetrahydro-1,8-naphthyridin-2-yl)ethoxy]pyrazol-3-yl]butanoic acid] | 300 | 27 | 3 | 1
Cn1nc(CC(CC(=O)O)c2cc(Cl)cc(C(C)(C)C#N)c2)cc1OCCc1ccc2c(n1)NCCC2 (stereo not drawn) [Example 8, 3-(3-chloro-5-(2-cyanopropan-2-yl)phenyl)-4-(1-methyl-5-(2-(5,6,7,8-tetrahydro-1,8-naphthyridin-2-yl)ethoxy)-1H-pyrazol-3-yl)butanoic acid] | 36 | 0.3 | 2 | 3

Reference: patent US20210284638A1 (Saint Louis University, priority 2018, published 2021)
